# Where two headings read alike, the source gives them in different places.
# What was measured:
# A-549 = assay: Inhibition of cells growth by colorimetric (SRB) assay, A-549; conditions: for GI50 / CC50: Homo sapiens, A549, 48 h; for GI50: read-out: GI50 A-549, SRB assay, 48 hours exposure
# In short: (§1)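 Human tumour cells seeded at 5×10^3/well in RPMI 1640 10% FBS, attached 18 h, then exposed 48 h to samples at 10 to 10^−8 μg/ml in DMSO/EtOH/PBS (0.5:0.5:99). Growth read by SRB staining after TCA fixation, OD 490 nm, triplicate wells; GI, TGI and LC derived.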
# HT-29 = assay: Inhibition of cells growth by colorimetric (SRB) assay, HT-29; conditions: for GI50 / CC50: Homo sapiens, HT-29, 48 h
# In short: as §1
# [1] = Inhibition of cells growth by colorimetric (SRB) assay, HMEC1; conditions: human, HMEC1 cells, LC50 H-MEC-1, SRB assay, 48 hours exposure
# Excerpt: (§2) The finality of these assays is to interrupt the growth of a “in vitro” tumor cell culture by means a continued exhibition of the cells to the sample to be testing.
# (§3) This form of the assay employs 96 well cell culture microplates of 9 mm diameter (Faircloth, 1988; Mosmann, 1983). Most of the cell lines are obtained from American Type Culture Collection (ATCC) derived from different human cancer types.
# (§4) Cells are maintained in RPMI 1640 10% FBS, supplemented with 0.1 g/l penicillin and 0.1 g/l streptomycin sulphate and then incubated at 37° C., 5% CO2 and 98% humidity. For the experiments, cells were harvested from subconfluent cultures using trypsin and resuspended in fresh medium before plating.
# (§5) Cells are seeded in 96 well microtiter plates, at 5×10^3 cells per well in aliquots of 195 μl medium, and they are allowed to attach to the plate surface by growing in drug free medium for 18 hours. Afterward, samples are added in aliquots of 5 μl in a ranging from 10 to 10^−8 μg/ml, dissolved in DMSO/EtOH/PBS (0.5:0.5:99). After 48 hours exposure, the antitumor effect are measured by the SRB methodology: cells are fixed by adding 50 μl of cold 50% (wt/vol) trichloroacetic acid (TCA) and incubating for 60 minutes at 4° C. Plates are washed with deionized water and dried. One hundred μl of SRB solution (0.4% wt/vol in 1% acetic acid) is added to each microtiter well and incubated for 10 minutes at room temperature. Unbound SRB is removed by washing with 1% acetic acid. Plates are air dried and bound stain is solubilized with Tris buffer. Optical densities are read on a automated spectrophotometric plate reader at a single wavelength of 490 nm.
# (§6) The values for mean +/−SD of data from triplicate wells are calculated. Some parameters for cellular responses can be calculated: GI=growth inhibition, TGI=total growth inhibition (cytostatic effect) and LC=cell killing (cytotoxic effect).
# HMEC1 = assay: as above; conditions: for GI50: Homo sapiens, HMEC-1, 48 h, read-out: GI50 H-MEC-1, SRB assay, 48 hours exposure; for TGI H-MEC-1: SRB assay, 48 hours exposure, in M (unit assumed)
# Excerpt: as §2, §3, §4, §5, §6
# [2] = read-out: LC50 A-549, SRB assay, 48 hours exposure
# [3] = read-out: GI50 HT-29, SRB assay, 48 hours exposure
# [4] = read-out: LC50 HT-29, SRB assay, 48 hours exposure
GI50 (A-549),GI50 (HT-29; [3]),"GI50 (HT-29; read-out: HT-29 GI50, SRB assay, 48 hours exposure)",SMILES,CC50 (A-549; [2]),"TGI A-549 (A-549; SRB assay, 48 hours exposure)",CC50 (HT-29; [4]),"TGI HT-29 (HT-29; SRB assay, 48 hours exposure)",CC50 at 48 h [1],GI50 (HMEC1),TGI H-MEC-1 (HMEC1),"CC50 (A-549; read-out: A-549 LC50, SRB assay, 48 hours exposure)","A-549 TGI (A-549; SRB assay, 48 hours exposure)","CC50 (HT-29; read-out: HT-29 LC50, SRB assay, 48 hours exposure)","HT-29 TGI (HT-29; SRB assay, 48 hours exposure)"
17.2 µM,20.4 µM,,CSc1nccc(-c2c3cc(Cl)cnc3n3c(SC)nccc23)n1 [Compound 47],26.7 µM,2.67E−05,26.7 µM,2.67E−05,26.7 µM,26.7 µM,2.67E−05,,,,
25.5 µM,25.5 µM,,CSc1nccc(-c2c3cc(F)c(Cl)nc3n3c(SC)nccc23)n1 [Compound 48],25.5 µM,2.55E−05,25.5 µM,2.55E−05,25.5 µM,25.5 µM,2.55E−05,,,,
22.5 µM,,31.1 µM,COc1cccc(-c2c3cccnc3n3c(SC)nccc23)c1 [Compound 57],,,,,31.1 µM,31.1 µM,3.11E−05,31.1 µM,3.11E−05,31.1 µM,3.11E−05
